In brackets after ≈: the same amount, converted by molar mass.
Legend:
Type in all cases: functional
[1] = test system: Staphylococcus aureus; assay: Antibacterial activity against Staphylococcus aureus ATCC 25923 after 24 hrs by micro broth dilution assay; conditions: ATCC 25923, 24 h
[2] = test system: Micrococcus luteus; assay: Antibacterial activity against Micrococcus luteus ATCC 4698 after 24 hrs by micro broth dilution assay; conditions: ATCC 4698, 24 h
[3] = test system: Bacillus spizizenii; assay: Antibacterial activity against Bacillus subtilis ATCC 6633 after 24 hrs by micro broth dilution assay; conditions: ATCC 6633, 24 h
[4] = test system: Candida albicans; assay: Antifungal activity against Candida albicans ATCC 10231 after 24 hrs by micro broth dilution assay; conditions: ATCC 10231, 24 h
[5] = test system: Escherichia coli; assay: Antibacterial activity against Escherichia coli DH52 after 24 hrs by micro broth dilution assay; conditions: DH52, 24 h
[6] = test system: Saccharomyces cerevisiae; assay: Antifungal activity against Beer yeast ATCC 9763 after 24 hrs by micro broth dilution assay; conditions: ATCC 9763, 24 h
[7] = test system: Pseudomonas aeruginosa; assay: Antibacterial activity against Pseudomonas aeruginosa ATCC 27853 a after 24 hrs by micro broth dilution assay; conditions: ATCC 27853, 24 h
[8] = test system: Candida; assay: Antifungal activity against Candida mycoderma ATCC 9888 after 24 hrs by micro broth dilution assay; conditions: ATCC 9888, 24 h
[9] = Antibacterial activity against Eberthella typhosa ATCC 14028 after 24 hrs by micro broth dilution assay; conditions: ATCC 14028, 24 h
[10] = test system: Staphylococcus aureus; assay: Antibacterial activity against methicillin-resistant Staphylococcus aureus N315 after 24 hrs by micro broth dilution assay; conditions: N315, 24 h
[11] = test system: Aspergillus flavus; assay: Antifungal activity against Aspergillus flavus ATCC 204304 after 24 hrs by micro broth dilution assay; conditions: ATCC 204304, 24 h
[12] = test system: Bacillus sp.; assay: Antibacterial activity against Bacillus proteus ATCC 13315 after 24 hrs by micro broth dilution assay; conditions: Bacillus sp. (in: firmicutes), ATCC 13315, 24 h
[13] = test system: Cyberlindnera jadinii; assay: Antifungal activity against Candida utilis ATCC 9950 after 24 hrs by micro broth dilution assay; conditions: Williopsis jadinii, ATCC 9950, 24 h

Compound | MIC [1] [µM] | MIC [2] [µM] | MIC [3] [µM] | MIC [4] [µM] | MIC [5] [µM] | MIC [6] [µM] | MIC [7] [µM] | MIC [8] [µM] | MIC [9] [µM] | MIC [10] [µM] | MIC [11] [µM] | MIC [12] [µM] | MIC [13] [µM]
Cc1ncc([N+](=O)[O-])n1CCCCCCn1cnc2cc(Cl)ccc2c1=O | 20 (≈ 7.8 µg/mL) | 40 (≈ 15.6 µg/mL) | 40 (≈ 15.6 µg/mL) | 20 (≈ 7.8 µg/mL) | 40 (≈ 15.6 µg/mL) | 20 (≈ 7.8 µg/mL) | > 1310 | 20 (≈ 7.8 µg/mL) | 20 (≈ 7.8 µg/mL) | 20 (≈ 7.8 µg/mL) | 40 (≈ 15.6 µg/mL) | 20 (≈ 7.8 µg/mL) | 20 (≈ 7.8 µg/mL)
Cc1ncc([N+](=O)[O-])n1CCn1cnc2cc(Cl)ccc2c1=O | 100 (≈ 33.4 µg/mL) | 100 (≈ 33.4 µg/mL) | 50 (≈ 16.7 µg/mL) | 50 (≈ 16.7 µg/mL) | 100 (≈ 33.4 µg/mL) | 50 (≈ 16.7 µg/mL) | > 1530 | 50 (≈ 16.7 µg/mL) | 20 (≈ 6.67 µg/mL) | 50 (≈ 16.7 µg/mL) | 20 (≈ 6.67 µg/mL) | 50 (≈ 16.7 µg/mL) | 50 (≈ 16.7 µg/mL)
O=c1c2ccc(Cl)cc2ncn1CCCCBr | > 1620 | 810 (≈ 256 µg/mL) | 1620 (≈ 511 µg/mL) | > 1620 | 810 (≈ 256 µg/mL) | 810 (≈ 256 µg/mL) | > 1620 | > 1620 | > 1620 | 810 (≈ 256 µg/mL) | > 1620 | 410 (≈ 129 µg/mL) | 410 (≈ 129 µg/mL)
O=c1c2ccc(F)cc2ncn1CCCCBr | > 1710 | 860 (≈ 257 µg/mL) | 1710 (≈ 512 µg/mL) | 860 (≈ 257 µg/mL) | 1710 (≈ 512 µg/mL) | 860 (≈ 257 µg/mL) | > 1710 | > 1710 | > 1710 | 430 (≈ 129 µg/mL) | 1710 (≈ 512 µg/mL) | 860 (≈ 257 µg/mL) | 430 (≈ 129 µg/mL)
O=c1c2ccc(Cl)cc2ncn1CCCCCBr | > 1550 | 390 (≈ 129 µg/mL) | 1550 (≈ 511 µg/mL) | > 1550 | 1550 (≈ 511 µg/mL) | 780 (≈ 257 µg/mL) | > 1550 | > 1550 | > 1550 | 780 (≈ 257 µg/mL) | > 1550 | 390 (≈ 129 µg/mL) | 390 (≈ 129 µg/mL)
O=c1c2ccc(Cl)cc2ncn1CCCCCn1cnc([N+](=O)[O-])c1 | 180 (≈ 65.1 µg/mL) | 40 (≈ 14.5 µg/mL) | 40 (≈ 14.5 µg/mL) | 90 (≈ 32.6 µg/mL) | 350 (≈ 127 µg/mL) | 90 (≈ 32.6 µg/mL) | 350 (≈ 127 µg/mL) | 180 (≈ 65.1 µg/mL) | 350 (≈ 127 µg/mL) | 180 (≈ 65.1 µg/mL) | 710 (≈ 257 µg/mL) | 350 (≈ 127 µg/mL) | 350 (≈ 127 µg/mL)
OC(Cn1cncn1)(Cn1cncn1)c1ccc(F)cc1F [FLUCONAZOLE] | > 1670 | > 1670 | > 1670 | < 10 | > 1670 | 50 (≈ 15.3 µg/mL) | > 1670 | 10 (≈ 3.06 µg/mL) | > 1670 | > 1670 | 840 (≈ 257 µg/mL) | > 1670 | 30 (≈ 9.19 µg/mL)
O=c1c2ccc(Cl)cc2ncn1CCn1cncn1 | 930 (≈ 256 µg/mL) | 30 (≈ 8.27 µg/mL) | 460 (≈ 127 µg/mL) | 930 (≈ 256 µg/mL) | 230 (≈ 63.4 µg/mL) | 460 (≈ 127 µg/mL) | 30 (≈ 8.27 µg/mL) | 460 (≈ 127 µg/mL) | 930 (≈ 256 µg/mL) | 460 (≈ 127 µg/mL) | 930 (≈ 256 µg/mL) | 930 (≈ 256 µg/mL) | 460 (≈ 127 µg/mL)
O=c1c2ccc(F)cc2ncn1CCCCCCBr | > 1560 | 390 (≈ 128 µg/mL) | 1560 (≈ 510 µg/mL) | 780 (≈ 255 µg/mL) | 780 (≈ 255 µg/mL) | 780 (≈ 255 µg/mL) | > 1560 | > 1560 | > 1560 | 390 (≈ 128 µg/mL) | 1560 (≈ 510 µg/mL) | 390 (≈ 128 µg/mL) | 390 (≈ 128 µg/mL)
O=c1c2ccc(F)cc2ncn1CCn1cncn1 | 990 (≈ 257 µg/mL) | 30 (≈ 7.78 µg/mL) | 490 (≈ 127 µg/mL) | 990 (≈ 257 µg/mL) | 250 (≈ 64.8 µg/mL) | 490 (≈ 127 µg/mL) | 30 (≈ 7.78 µg/mL) | 490 (≈ 127 µg/mL) | 990 (≈ 257 µg/mL) | 490 (≈ 127 µg/mL) | 990 (≈ 257 µg/mL) | 990 (≈ 257 µg/mL) | 990 (≈ 257 µg/mL)
O=c1c2ccc(F)cc2ncn1CCn1ccnc1 | > 1980 | 500 (≈ 129 µg/mL) | > 1980 | 990 (≈ 256 µg/mL) | 1980 (≈ 511 µg/mL) | 500 (≈ 129 µg/mL) | 990 (≈ 256 µg/mL) | > 1980 | > 1980 | 990 (≈ 256 µg/mL) | 500 (≈ 129 µg/mL) | 1980 (≈ 511 µg/mL) | 990 (≈ 256 µg/mL)
O=c1c2ccc(F)cc2ncn1CCCCn1cnc([N+](=O)[O-])c1 | 390 (≈ 129 µg/mL) | 50 (≈ 16.6 µg/mL) | 50 (≈ 16.6 µg/mL) | 100 (≈ 33.1 µg/mL) | 770 (≈ 255 µg/mL) | 100 (≈ 33.1 µg/mL) | 770 (≈ 255 µg/mL) | 770 (≈ 255 µg/mL) | 390 (≈ 129 µg/mL) | 190 (≈ 62.9 µg/mL) | 770 (≈ 255 µg/mL) | 390 (≈ 129 µg/mL) | 390 (≈ 129 µg/mL)
O=c1c2ccc(Cl)cc2ncn1CCCCCCCCCCn1cnc([N+](=O)[O-])c1 | 300 (≈ 130 µg/mL) | 40 (≈ 17.3 µg/mL) | 40 (≈ 17.3 µg/mL) | 40 (≈ 17.3 µg/mL) | 150 (≈ 64.8 µg/mL) | 70 (≈ 30.2 µg/mL) | 70 (≈ 30.2 µg/mL) | 40 (≈ 17.3 µg/mL) | 300 (≈ 130 µg/mL) | 150 (≈ 64.8 µg/mL) | 150 (≈ 64.8 µg/mL) | 70 (≈ 30.2 µg/mL) | 150 (≈ 64.8 µg/mL)
